Where two headings read alike, the source gives them in different places.
Legend:
[1] = system: MCF7; experiment: SRB cell proliferation assay, MCF7; format: cell-based, human; conditions: for IC50: Homo sapiens, read-out: IC50 (μM ± SD) MCF7; for Selectivity index (SI) 184B5 versus MCF7 / Selectivity index (SI) MCF10A versus MCF7: Table 2B; for Selectivity index (SI) 184B5 versus MCF7: non-cancer 184B5 vs cancer MCF7; for Selectivity index (SI) MCF10A versus MCF7: non-cancer MCF10A vs cancer MCF7
Procedure: (§1) In vitro anticancer study: The in vitro anti-proliferative tests were carried out as described previously, using aliquots of the cell lines used therein. Briefly, HeLa, MDA-MB-231 and MDA-MB-468, MCF7, and 184B5 and MCF 10A cell lines were purchased from ATCC. The identity of the cell lines presented in this study were verified by short tandem repeat profiling by Genetica DNA Laboratories (www.celllineauthentication.com) (April 8, 2015). MCF10A was grown in DMEM F12 medium supplemented with 0.02 μg/mL epidermal growth factor, 10% FBS, 10 μg/mL insulin and […] hydrocortisone. MDA-MB-468 were grown in DMEM supplemented with 10% FBS and antibiotics cocktail (100 μg/mL streptomycin, 100 units/mL penicillin and 250 ng/mL amphotericin B). SRB cell proliferation assays were carried out as previously described, with some minor modifications. The concentration range for all tested cell lines were from 100–0.39 μg/mL for extracts and 100–0.39 μM for pure compounds. […] All experiments were carried out at least twice.

[2] = system: MDA-MB-231; experiment: SRB cell proliferation assay, MDA-MB-231; format: cell-based, human; conditions: for IC50: Homo sapiens, read-out: IC50 (μM ± SD) MDA-MB-231; for Selectivity index (SI) 184B5 versus MDA-MB-231 / Selectivity index (SI) MCF10A versus MDA-MB-231: Table 2B; for Selectivity index (SI) 184B5 versus MDA-MB-231: non-cancer 184B5 vs cancer MDA-MB-231; for Selectivity index (SI) MCF10A versus MDA-MB-231: non-cancer MCF10A vs cancer MDA-MB-231
Procedure: as §1

[3] = system: chloroquine-resistant W2 P. falciparum strain; experiment: In vitro anti-plasmodial assay (HRP2 ELISA), W2; format: cell-based, Plasmodium falciparum; conditions: for IC50: read-out: IC50 (μM ± SD) W2; for SI W2 184B5 / SI W2 MCF10A: Table 3; for SI W2 184B5: selectivity index between 184B5 and parasites W2; for SI W2 MCF10A: selectivity index between MCF10A and parasites W2
Procedure: (§2) Parasites were grown in A-positive human blood (Etablissement Français du Sang, Marseille, France) under controlled atmospheric conditions that consisted of 10% O2, 5% CO2, and 85% N2 at 37 °C with a humidity of 95%.
(§3) In vitro anti-plasmodial assay: The two P. falciparum strains 3D7 and W2 were synchronized twice with sorbitol before use. The clonality of these strains was verified both in our laboratory and in an independent laboratory from the Worldwide Anti-malarial Resistance Network (WWARN) by PCR genotyping of the polymorphic genetic markers msp1 and msp2 and microsatellite loci. The compounds were re-suspended in methanol or DMSO 5% (v/v) and then diluted in methanol to obtain final concentrations ranging from 0.008 to 500 μg/mL (final concentration of 0.5% of methanol or DMSO). […] The plates were incubated for 72 h at 37 °C in controlled atmospheric conditions 5% CO2, 10% O2, and […]. After thawing the plates, haemolysed cultures were homogenized by vortexing the plates. Both the success of the drug susceptibility assay and the appropriate volume of haemolysed culture to use for each assay were determined for each clinical isolate during a preliminary HRP2 ELISA. Both the pre-test and subsequent ELISA assays were performed using a commercial kit (Malaria Ag Celisa, ref KM2159, Cellabs PTY LTD, Brookvale, Australia) according to the manufacturer’s recommendation. The optical density (OD) of each sample was measured with a spectrophotometer (Safire 2, Tecan, Lyon, France). […] The anti-plasmodial in vitro assay was performed five times for each product. The IC50 values represented the mean value calculated from five experiments. According to Hout, a selectivity index (SI) was based on the ratio between anti-parasitic and cytotoxic activities. In the case of our study, a SI was calculated between non-tumorigenic cell line 184B5 and parasites 3D7 or W2 and/or MCF10A and these two parasites.

[4] = system: 184B5; experiment: SRB cell proliferation assay, 184B5 non-cancer cells; format: cell-based, human; conditions: Homo sapiens
Procedure: as §1

[5] = system: HeLa; experiment: SRB cell proliferation assay, HeLa; format: cell-based, human; conditions: for IC50: Homo sapiens, HeLa, 72 h, read-out: IC50 (μM ± SD) HeLa; for Selectivity index (SI) 184B5 versus HeLa / Selectivity index (SI) MCF10A versus HeLa: Table 2B; for Selectivity index (SI) 184B5 versus HeLa: non-cancer 184B5 vs cancer HeLa; for Selectivity index (SI) MCF10A versus HeLa: non-cancer MCF10A vs cancer HeLa
Procedure: as §1

[6] = system: HeLa, MDA-MB231, MDA-MB-468, MCF7, 184B5 and MCF10A cell lines; experiment: SRB cell proliferation assay, whole panel of cell lines; format: cell-based, human; conditions: for IC50: Homo sapiens, read-out: IC50 values, range over the cell lines examined
Procedure: as §1

[7] = system: Plasmodium falciparum 3D7 and W2 strains; experiment: In vitro anti-plasmodial assay, both strains; format: cell-based
Procedure: as §2, §3

[8] = system: chloroquine-susceptible 3D7 P. falciparum strain; experiment: In vitro anti-plasmodial assay (HRP2 ELISA), 3D7; format: cell-based, Plasmodium falciparum; conditions: for IC50: read-out: IC50 (μM ± SD) 3D7; for SI 3D7 184B5 / SI 3D7 MCF10A: Table 3; for SI 3D7 184B5: selectivity index between 184B5 and parasites 3D7; for SI 3D7 MCF10A: selectivity index between MCF10A and parasites 3D7; for Selective index SI on 3D7 strain: vs 184B5 and MCF10A
Procedure: as §2, §3

[9] = system: MDA-MB-468; experiment: SRB cell proliferation assay, MDA-MB-468; format: cell-based, human; conditions: for IC50: Homo sapiens, read-out: IC50 (μM ± SD) MDA-MB-468; for Selectivity index (SI) 184B5 versus MDA-MB-468 / Selectivity index (SI) MCF10A versus MDA-MB-468: Table 2B; for Selectivity index (SI) 184B5 versus MDA-MB-468: non-cancer 184B5 vs cancer MDA-MB-468; for Selectivity index (SI) MCF10A versus MDA-MB-468: non-cancer MCF10A vs cancer MDA-MB-468
Procedure: as §1

[10] = system: MCF 10A; experiment: SRB cell proliferation assay, MCF10A non-cancer cells; format: cell-based; conditions: Homo sapiens, read-out: IC50 (μM ± SD) MCF 10A
Procedure: as §1

[11] = MDA-MB-231, Table 2A, SRB, 72 h
[12] = 72 h, HRP2 ELISA, mean of five experiments
[13] = Plasmodium falciparum, W2, 72 h, 72 h, HRP2 ELISA, mean of five experiments
[14] = 184B5, Table 2A, SRB, 72 h, read-out: IC50 (μM ± SD) 184B5
[15] = 184B5, Table 3, non-cancer cell line, read-out: IC50 (μM ± SD) 184B5
[16] = MDA-MB-468, Table 2A, SRB, 72 h
[17] = Plasmodium falciparum, 3D7, 72 h, 72 h, HRP2 ELISA, mean of five experiments

Row | SMILES | Selectivity index (SI) 184B5 versus MCF7 [1] | Selectivity index (SI) MCF10A versus MCF7 [1] | Selectivity index (SI) 184B5 versus MDA-MB-231 [2] | Selectivity index (SI) MCF10A versus MDA-MB-231 [2] | SI W2 184B5 [3] | SI W2 MCF10A [3] | Selectivity index (SI) 184B5 versus HeLa [5] | Selectivity index (SI) MCF10A versus HeLa [5] | Anti-plasmodial activity against both 3D7 and W2 (in words) [7] | SI 3D7 184B5 [8] | SI 3D7 MCF10A [8] | IC50 ([1]; MCF7, Table 2A, SRB, 72 h) | IC50 [2, 11] | IC50 [3, 13] | IC50 [4, 14] | IC50 [4, 15] | IC50 ([5]; Table 2A, SRB) | IC50 [9, 16] | IC50 ([10]; Table 2A, SRB, 72 h) | IC50 ([10]; Table 3, non-cancer cell line) | also measured
1 | COc1ccc2c(c1OC)CC1c3c(cc4c(c3-2)OCO4)CCN1C (centres unmarked) [Crebanine 4, crebanine] | 1.56 | 1.55 | 1.22 | 1.21 | 21.96 | 21.83 | 0.99 | 0.98 | strong activity | 30.41 | 30.23 |  |  |  |  |  |  |  |  |  | IC50 ([1]; MCF7, 72 h): 30.5 ± 4.89 µM; IC50 ([2]; MDA-MB-231, 72 h): 38.9 ± 7.1 µM; IC50 ([3]; Plasmodium falciparum, W2, 72 h): 2.16 ± 0.38 µM; IC50 ([4]; 184B5, 72 h, read-out: IC50 (μM ± SD) 184B5): 47.4 ± 2.83 µM; IC50 ([4]; 184B5, read-out: IC50 (μM ± SD) 184B5): 47.4 ± 2.83 µM; IC50 [5]: 48.1 ± 2.38 µM; IC50 [6]: 17 to 48 µM; IC50 ([8]; Plasmodium falciparum, 3D7, 72 h): 1.56 ± 0.22 µM; Selective index SI on 3D7 strain [8]: > 20; IC50 ([9]; MDA-MB-468, 72 h): 17.8 ± 4.63 µM; Selectivity index (SI) 184B5 versus MDA-MB-468 [9]: 2.66; Selectivity index (SI) MCF10A versus MDA-MB-468 [9]: 2.65; IC50 ([10]; 72 h): 47.2 ± 4.37 µM; IC50 [10]: 47.2 ± 4.37 µM
2 | COc1cc2c(cc1OC)[C@@H]1Cc3ccc(OC)c(OC)c3CN1CC2 [Tetrahydropalmatine 7, tetrahydropalmatine] |  |  |  |  | >0.22 | >0.22 |  |  | not active | >0.18 | >0.18 | > 50 µM | > 50 µM | 216 to 226 µM | > 50 µM | > 50 µM | > 50 µM | > 50 µM | > 50 µM | > 50 µM | IC50 [3, 12]: 226 ± 19.8 µM; Anti-proliferative activity (in words) [6]: did not show any effect; IC50 [8, 12]: 276 ± 14.4 µM
3 | COc1cccc2c1C(=O)c1c3c-2c2c(cc3cc[n+]1C)OCO2 [Thailandine 2, thailandine] | 1.50 | 2.50 | 0.42 | 0.70 | 13.73 | 22.77 | 0.73 | 1.20 | strong activity | 12.58 | 20.86 | 1.99 ± 1.36 µM | 7.11 ± 0.07 µM | 0.24 µM | 3.02 ± 0.1 µM | 3.02 ± 0.1 µM | 4.1 ± 0.4 µM | 0.78 ± 0.12 µM | 5.01 ± 0.15 µM | 5.01 ± 0.15 µM | SI against P. falciparum (W2 vs. MCF10A) [3]: 22.8 fold; IC50 [3, 12]: 0.22 ± 0.02 µM; IC50 ([6]; cancer and non-cancer cell lines): 0.78 to 7.11 µM; Selectivity index (SI) between cells and parasites ([7]; 184B5, MCF10A vs 3D7, W2): > 12; SI against P. falciparum (3D7 vs. 184B5) [8]: 12.6 fold; IC50 [8, 12]: 0.24 ± 0.04 µM; IC50 [8, 17]: 0.22 µM; Selectivity index (SI) 184B5 versus MDA-MB-468 [9]: 3.90; Selectivity index (SI) MCF10A versus MDA-MB-468 [9]: 6.40
4 | COc1cc2c(cc1OC)-c1cc3ccc(OC)c(OC)c3c[n+]1CC2 [Palmatine chloride 6, palmatine] |  |  |  |  | >15.67 | >15.67 |  |  | strong activity |  |  | > 50 µM | > 50 µM | 3.19 ± 0.64 µM | > 50 µM | > 50 µM | > 100 µM | > 50 µM | > 50 µM | > 50 µM | Anti-proliferative activity (in words) [6]: did not show any effect; IC50 [8, 17]: 1.25 ± 0.28 µM; Selective index SI on 3D7 strain [8]: > 20

— publication PMC7465040, “Cytotoxic and Anti-Plasmodial Activities of Stephania dielsiana Y.C. Wu Extracts and the Isolated Compounds” (Molecules, 2020)
